Reference: patent publication US9273058B2 (BRISTOL-MYERS SQUIBB COMPANY, priority 2013, dated 2016)

Molecular target: CK1δ (Homo sapiens, UniProt P48730)
Test: CK1δ kinase assay (Caliper LabChip electrophoretic separation of fluoresceinated peptide substrate and product)
Format: biochemical
Conditions: 200 pM CK1δ, 50 μM ATP, 1.5 μM peptide, 22 hours at room temperature; read-out: CK1δ IC50 range
Procedure: CK1ε and CK1δ Kinase Assays
The kinase assay was performed in V-bottom 384-well plates. […] The reaction was incubated at room temperature for 22 hours and terminated by adding 45 μl of 35 mM EDTA to each sample. The reaction mixture was analyzed on the Caliper LABCHIP®3000 (Caliper, Hopkinton, Mass.) by electrophoretic separation of the unphosphorylated substrate and phosphorylated product. […] Compounds were dissolved at 10 mM in dimethylsulfoxide (DMSO) and evaluated at eleven concentrations. IC50 values were derived by non-linear regression analysis.

Chain of CK1δ (P48730 whole entry): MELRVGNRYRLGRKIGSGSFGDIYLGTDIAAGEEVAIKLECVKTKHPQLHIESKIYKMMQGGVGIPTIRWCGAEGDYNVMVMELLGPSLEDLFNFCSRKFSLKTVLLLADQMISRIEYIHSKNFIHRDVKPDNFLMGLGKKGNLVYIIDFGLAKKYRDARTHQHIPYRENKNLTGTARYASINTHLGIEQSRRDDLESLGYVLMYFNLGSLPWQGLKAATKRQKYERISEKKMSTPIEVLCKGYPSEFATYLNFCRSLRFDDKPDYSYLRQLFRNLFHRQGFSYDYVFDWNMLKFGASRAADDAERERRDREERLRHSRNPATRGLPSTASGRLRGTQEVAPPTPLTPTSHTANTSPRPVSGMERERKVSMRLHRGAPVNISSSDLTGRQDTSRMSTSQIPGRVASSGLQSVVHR

Compound	IC50 [nM]
2-(3-Chloro-4-fluorophenyl)-N^5-(3,3-difluorocyclobutyl)-7-isopropyl-6,7-dihydropyrazolo[1,5-a]pyrazine-3,5(4H)-dicarboxamide [Compound A123]	10 to 100
NC(=O)c1c(-c2ccc(F)c(Cl)c2)nn2c1CN(C(=O)NC1CC(C(F)F)C1)CC2 (single isomer, unassigned) [Compound 252, 2-(3-Chloro-4-fluorophenyl)-N^5-(3-(difluoromethyl)cyclobutyl)-6,7-dihydropyrazolo[1,5-a]pyrazine-3,5(4H)-dicarboxamide]	0.01 to 10
NC(=O)c1c(-c2ccc(F)c(Cl)c2)nn2c1CN(C(=O)NC1CC(C(F)F)C1)CC2 (single isomer, unassigned) [Compound 253, 2-(3-Chloro-4-fluorophenyl)-N^5-(3-(difluoromethyl)cyclobutyl)-6,7-dihydropyrazolo[1,5-a]pyrazine-3,5(4H)-dicarboxamide]	0.01 to 10
Cc1cc(C)cc(-c2nn3c(c2C(N)=O)CN(C(=O)NC(C)(C)C)CC3)c1 [Compound 128, N^5-(tert-Butyl)-2-(3,5-dimethylphenyl)-6,7-dihydropyrazolo[1,5-a] pyrazine-3,5(4H)-dicarboxamide]	10 to 100
CC(F)(F)C(C)(C)NC(=O)N1CCn2nc(-c3cccc(Cl)c3)c(C(N)=O)c2C1 [Compound 174, 2-(3-Chlorophenyl)-N^5-(3,3-difluoro-2-methylbutan-2-yl)-6,7-dihydropyrazolo[1,5-a] pyrazine-3,5(4H)-dicarboxamide]	0.01 to 10
CO[C@H]1C[C@@H](NC(=O)N2CCn3nc(-c4ccc(F)c(Cl)c4)c(C(N)=O)c3C2)C1 [Compound 191, 2-(3-Chloro-4-fluorophenyl)-N^5-((1s,3s)-3-methoxycyclobutyl)-6,7-dihydropyrazolo[1,5-a] pyrazine-3,5(4H)-dicarboxamide]	0.01 to 10
CO[C@H]1C[C@H](NC(=O)N2CCn3nc(-c4ccc(F)c(Cl)c4)c(C(N)=O)c3C2)C1 [Compound 192, 2-(3-Chloro-4-fluorophenyl)-N^5-((1r,3r)-3-methoxycyclobutyl)-6,7-dihydropyrazolo[1,5-a] pyrazine-3,5(4H)-dicarboxamide]	0.01 to 10
NC(=O)c1c(-c2ccc(F)c(Cl)c2)nn2c1CN(C(=O)NCC1CCC(F)(F)CC1)CC2 [Compound 194, 2-(3-Chloro-4-fluorophenyl)-N^5-((4,4-difluorocyclohexyl)methyl)-6,7-dihydropyrazolo[1,5-a] pyrazine-3,5(4H)-dicarboxamide]	0.01 to 10
NC(=O)c1c(-c2ccc(F)c(Cl)c2)nn2c1CN(C(=O)N[C@@H]1C[C@@H]3[C@H](C1)C3(F)F)CC2 [Compound 197, 2-(3-Chloro-4-fluorophenyl)-N^5-((1R,3s,5S)-6,6-difluorobicyclo[3.1.0]hexan-3-yl)-6,7-dihydropyrazolo[1,5-a] pyrazine-3,5(4H)-dicarboxamide]	0.01 to 10
NC(=O)c1c(-c2ccc(F)c(Cl)c2)nn2c1CN(C(=O)N[C@H]1C[C@@H]3[C@H](C1)C3(F)F)CC2 [Compound 198]	0.01 to 10
CC(F)(F)C(C)(C)NC(=O)N1CCn2nc(-c3ccc(Cl)c(Cl)c3)c(C(N)=O)c2C1 [Compound 201, 2-(3,4-Dichlorophenyl)-N^5-(3,3-difluoro-2-methylbutan-2-yl)-6,7-dihydropyrazolo[1,5-a] pyrazine-3,5(4H)-dicarboxamide]	0.01 to 10
NC(=O)c1c(-c2ccc(Cl)c(Cl)c2)nn2c1CN(C(=O)NC1CC3(CC3)C1)CC2 [Compound 207, 2-(3,4-Dichlorophenyl)-N^5-(spiro[2.3]hexan-5-yl)-6,7-dihydropyrazolo [1,5-a]pyrazine-3,5(4H)-dicarboxamide]	0.01 to 10
CC(CF)(CF)NC(=O)N1CCn2nc(-c3ccc(Cl)c(Cl)c3)c(C(N)=O)c2C1 [Compound 210, 2-(3,4-Dichlorophenyl)-N^5-(1,3-difluoro-2-methylpropan-2-yl)-6,7-dihydropyrazolo [1,5-a]pyrazine-3,5(4H)-dicarboxamide]	0.01 to 10
CC(CF)(CF)NC(=O)N1CCn2nc(-c3cccc(Cl)c3)c(C(N)=O)c2C1 [Compound 211, 2-(3-Chlorophenyl)-N^5-(1,3-difluoro-2-methylpropan-2-yl)-6,7-dihydropyrazolo[1,5-a]pyrazine-3,5(4H)-dicarboxamide]	0.01 to 10
NC(=O)c1c(-c2ccc(F)c(Cl)c2)nn2c1CN(C(=O)NC1(COC(F)F)CCC1)CC2 [Compound 223, 2-(3-Chloro-4-fluorophenyl)-N^5-(1-((difluoromethoxy)methyl)cyclobutyl)-6,7-dihydropyrazolo[1,5-a]pyrazine-3,5(4H)-dicarboxamide]	0.01 to 10
CC(C)(NC(=O)N1CCn2nc(-c3ccc(Cl)c(Cl)c3)c(C(N)=O)c2C1)C1CC(F)(F)C1 [Compound 228, 2-(3,4-Dichlorophenyl)-N^5-(2-(3,3-difluorocyclobutyl)propan-2-yl)-6,7-dihydropyrazolo[1,5-a] pyrazine-3,5(4H)-dicarboxamide]	0.01 to 10
CC1(CNC(=O)N2CCn3nc(-c4ccc(Cl)c(Cl)c4)c(C(N)=O)c3C2)CC(F)(F)C1 [Compound 231, 2-(3,4-Dichlorophenyl)-N^5-((3,3-difluoro-1-methylcyclobutyl)methyl)-6,7-dihydropyrazolo[1,5-a] pyrazine-3,5(4H)-dicarboxamide]	0.01 to 10
NC(=O)c1c(-c2ccc(F)c(Cl)c2)nn2c1CN(C(=O)N[C@@H]1CC[C@@H]1C(F)F)CC2 [Compound 238, 2-(3-Chloro-4-fluorophenyl)-N^5-((1R,2S)-2-(difluoromethyl)cyclobutyl)-6,7-dihydropyrazolo[1,5-a]pyrazine-3,5(4H)-dicarboxamide]	0.01 to 10
NC(=O)c1c(-c2ccc(Cl)c(Cl)c2)nn2c1CN(C(=O)N[C@@H]1CC[C@@H]1C(F)F)CC2 [Compound 240, 2-(3,4-Dichlorophenyl)-N^5-((1R,2S)-2-(difluoromethyl)cyclobutyl)-6,7-dihydropyrazolo[1,5-a] pyrazine-3,5(4H)-dicarboxamide]	0.01 to 10
NC(=O)c1c(-c2cccc(Cl)c2)nn2c1CN(C(=O)N[C@@H]1CC[C@H]1COC(F)F)CC2 [Compound 242, 2-(3-Chlorophenyl)-N^5-((1R,2R)-2-((difluoromethoxy)methyl)cyclobutyl)-6,7-dihydropyrazolo[1,5-a] pyrazine-3,5(4H)-dicarboxamide]	0.01 to 10

Results, then the compound that gave them:

IC50 [nM]	Compound
0.01 to 10	CC(C)(C)NC(=O)N1Cc2c(C(N)=O)c(-c3ccc(F)c(Cl)c3)nn2C(CCO)C1 (single isomer, unassigned) [Compound A97, N^5-(tert-Butyl)-2-(3-chloro-4-fluorophenyl)-7-(2-hydroxyethyl)-6,7-dihydropyrazolo[1,5-a]pyrazine-3,5(4H)-dicarboxamide]
0.01 to 10	CC(C)(C)NC(=O)N1Cc2c(C(N)=O)c(-c3ccc(F)c(Cl)c3)nn2C(C(F)(F)F)C1 (single isomer, unassigned) [Compound A128, N^5-(tert-Butyl)-2-(3-chloro-4-fluorophenyl)-7-(trifluoromethyl)-6,7-dihydropyrazolo[1,5-a]pyrazine-3,5(4H)-dicarboxamide]
0.01 to 10	NC(=O)c1c(-c2cccc(Cl)c2)nn2c1CN(C(=O)NC1CC(C(F)F)C1)CC2 (stereo not shown) [Compound 256, 2-(3-Chlorophenyl)-N^5-(3-(difluoromethyl)cyclobutyl)-6,7-dihydropyrazolo[1,5-a]pyrazine-3,5(4H)-dicarboxamide]
0.01 to 10	NC(=O)c1c(-c2cccc(Cl)c2)nn2c1CN(C(=O)NC1CC(C(F)F)C1)CC2 (stereo not shown) [Compound 257, 2-(3-Chlorophenyl)-N^5-(3-(difluoromethyl)cyclobutyl)-6,7-dihydropyrazolo[1,5-a]pyrazine-3,5(4H)-dicarboxamide]
0.01 to 10	N#Cc1ccc(O[C@H]2C[C@H](NC(=O)N3CCn4nc(-c5ccc(Cl)c(Cl)c5)c(C(N)=O)c4C3)C2)cc1 [Compound 268, N^5-((1r,3r)-3-(4-Cyanophenoxy)cyclobutyl)-2-(3,4-dichlorophenyl)-6,7-dihydropyrazolo[1,5-a] pyrazine-3,5(4H)-dicarboxamide]
0.01 to 10	N#Cc1ccc([C@H]2C[C@@H](NC(=O)N3CCn4nc(-c5ccc(F)c(Cl)c5)c(C(N)=O)c4C3)C2)cc1 [Compound 282, 2-(3-Chloro-4-fluorophenyl)-N^5-((1s,3s)-3-(4-cyanophenyl)cyclobutyl)-6,7-dihydropyrazolo[1,5-a]pyrazine-3,5(4H)-dicarboxamide]
0.01 to 10	CCC1(NC(=O)N2CCn3nc(-c4ccc(Cl)c(Cl)c4)c(C(N)=O)c3C2)CC(F)(F)C1 [Compound 301, 2-(3,4-Dichlorophenyl)-N^5-(1-ethyl-3,3-difluorocyclobutyl)-6,7-dihydropyrazolo[1,5-a]pyrazine-3,5(4H)-dicarboxamide]
0.01 to 10	CC(C)(O)[C@H](F)CNC(=O)N1CCn2nc(-c3cccc(Cl)c3)c(C(N)=O)c2C1 [Compound 337, (R)-2-(3-Chlorophenyl)-N^5-(2-fluoro-3-hydroxy-3-methylbutyl)-6,7-dihydropyrazolo[1,5-a]pyrazine-3,5(4H)-dicarboxamide]
0.01 to 10	CC(C)(C)NC(=O)N1Cc2c(C(N)=O)c(-c3cccc(Cl)c3)nn2C(CO)C1 (stereo not shown) [Compound A2, N^5-(tert-Butyl)-2-(3-chlorophenyl)-7-(hydroxymethyl)-6,7-dihydropyrazolo[1,5-a] pyrazine-3,5(4H)-dicarboxamide]
0.01 to 10	NC(=O)c1c(-c2cccc(Cl)c2)nn2c1CN(C(=O)NC(CF)(CF)CF)CC2 [Compound A41, 2-(3-Chlorophenyl)-N^5-(1,3-difluoro-2-(fluoromethyl)propan-2-yl)-6,7-dihydropyrazolo[1,5-a] pyrazine-3,5(4H)-dicarboxamide]
0.01 to 10	N#CC1(NC(=O)N2CCn3nc(-c4cccc(Cl)c4)c(C(N)=O)c3C2)CCC1 [Compound A43, 2-(3-Chlorophenyl)-N^5-(1-cyanocyclobutyl)-6,7-dihydropyrazolo[1,5-a]pyrazine-3,5(4H)-dicarboxamide]
